{
  "source": "patent US10662451B2",
  "about": "“Microorganisms and methods for the coproduction 1,4-butanediol and gamma-butyrolactone” (priority 2009, dated 2020)",
  "key": {"[1]": {"tested_on": "branched chain alpha-ketoacid decarboxylase (BCKA)", "details": "cited from earlier work"}, "[2]": {"biological_target": "T1, adh1 from Geobacillus thermoglucosidasius M10EXG (Geobacillus sp. M10EXG, UniProt Q6RS93)", "T1 sequence (Q6RS93 1-340)": "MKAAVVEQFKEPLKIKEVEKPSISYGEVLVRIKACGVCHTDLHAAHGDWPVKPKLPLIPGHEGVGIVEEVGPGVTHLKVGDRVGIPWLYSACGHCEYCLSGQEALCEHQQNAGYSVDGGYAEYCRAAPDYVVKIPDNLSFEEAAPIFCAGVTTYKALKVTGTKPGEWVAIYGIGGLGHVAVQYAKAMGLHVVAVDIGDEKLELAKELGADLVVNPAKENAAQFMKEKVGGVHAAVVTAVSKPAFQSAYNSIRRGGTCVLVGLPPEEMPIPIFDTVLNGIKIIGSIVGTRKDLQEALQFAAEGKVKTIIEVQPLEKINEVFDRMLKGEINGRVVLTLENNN", "test": "ADH enzyme assay of E. coli expressed Adh1 enzyme (084)", "type": "biochemical", "details": "reduction by Adh1 enzyme (084) expressed in E. coli", "procedure": "Alcohol (ADH) and aldehyde (ALD) dehydrogenase was assayed in the reductive direction using a procedure adapted from several literature sources (Durre et al., FEMS Microbiol. Rev. 17:251-262 (1995); Palosaari and Rogers, J. Bacteriol. 170:2971-2976 (1988) and Welch et al., Arch. Biochem. Biophys. 273:309-318 (1989)). The oxidation of NADH is followed by reading absorbance at 340 nm every four seconds for a total of 240 seconds at room temperature. The reductive assays were performed in 100 mM MOPS (adjusted to pH 7.5 with KOH), 0.4 mM NADH, and from 1 to 50 μl of cell extract. The reaction is started by adding the following reagents: 100 μl of 100 mM acetaldehyde or butyraldehyde for ADH, or 100 μl of 1 mM acetyl-CoA or butyryl-CoA for ALD. The Spectrophotometer is quickly blanked and then the kinetic read is started. The resulting slope of the reduction in absorbance at 340 nm per minute, along with the molar extinction coefficient of NAD(P)H at 340 nM (6000) and the protein concentration of the extract, can be used to determine the specific activity.\nMultiple alcohol dehydrogenases were screened for their ability to catalyze the reduction of 4-hydroxybutanal to 14-BDO.\nThe Adh1 enzyme (084) expressed very well from its native gene in E. coli (see FIG. 8A)."}, "[3]": {"tested_on": "aminotransferase from Leishmania mexicana", "details": "activity considered 100% on tyrosine; cited from earlier work"}},
  "data": [
    {"smiles": "O=C(O)CCC(=O)C(=O)O", "note": "[2-Oxoglutarate]", "values": [
      {"measurement": "decarboxylation activity relative to other branched-chain substrates", "setting": "[1]", "value": 5, "unit": "%"}
    ]},
    {"smiles": "O=CCCCO", "note": "[Gene 4HB-aldehyde, 4-hydroxybutyraldehyde]", "values": [
      {"measurement": "Km", "setting": "[2]", "value": 4000, "unit": "µM"}
    ]},
    {"smiles": "CCCC=O", "note": "[butyraldehyde]", "values": [
      {"measurement": "Km", "setting": "[2]", "value": 1200, "unit": "µM"}
    ]},
    {"smiles": "CC(C)C[C@H](N)C(=O)O", "note": "[leucine]", "values": [
      {"measurement": "aminotransferase activity", "setting": "[3]", "value": 25, "unit": "%"}
    ]},
    {"smiles": "CSCC[C@H](N)C(=O)O", "note": "[methionine]", "values": [
      {"measurement": "aminotransferase activity", "setting": "[3]", "value": 25, "unit": "%"}
    ]},
    {"smiles": "N[C@@H](Cc1ccccc1)C(=O)O", "note": "[phenylalanine]", "values": [
      {"measurement": "aminotransferase activity", "setting": "[3]", "value": 90, "unit": "%"}
    ]},
    {"smiles": "N[C@@H](Cc1c[nH]c2ccccc12)C(=O)O", "note": "[tryptophan]", "values": [
      {"measurement": "aminotransferase activity", "setting": "[3]", "value": 85, "unit": "%"}
    ]},
    {"smiles": "N[C@@H](Cc1ccc(O)cc1)C(=O)O", "note": "[tyrosine]", "values": [
      {"measurement": "aminotransferase activity", "setting": "[3]", "value": 100, "unit": "%"}
    ]}
  ]
}
